Experimental findings from ChEMBL document CHEMBL6182926, “Design, Synthesis, and Biological Activity Evaluation of Deuterated Diphenyl Azole Alcohol-Based CYP51 Inhibitors” (J Med Chem, 2025) are described below.

What all share (type): functional
One test relates to Candida tropicalis. Briefly: Antifungal activity against Candida tropicalis CGMCC 2.3739 assessed as inhibition of visible growth.
In test [1] the test system is Candida albicans. The test is described as follows: Antifungal activity against Candida albicans CPCC 400616 assessed as inhibition of visible growth.
Another test has as its system Nakaseomyces glabratus. Briefly: Antifungal activity against Clinical isolate Candida glabrata assessed as inhibition of visible growth.
The subject of the next test is Cryptococcus neoformans. The test is described as follows: Antifungal activity against Cryptococcus neoformans CGMCC 2.3161 assessed as inhibition of visible growth.
In the next test the test system is Candida parapsilosis. The test is described as follows: Antifungal activity against Candida parapsilosis GIM 2.190 assessed as inhibition of visible growth. The note with it: Lodderomyces parapsilosis.
A further test has as its system Pichia kudriavzevii. Briefly: Antifungal activity against Candida krusei AS 2.1045 assessed as inhibition of visible growth.
The test system of test [2] is Candida albicans. The test is described as follows: Antifungal activity against Candida albicans SC 5314 assessed as inhibition of visible growth.

Each structure is given as a SMILES string. Converted amounts (≈) assume the structure as drawn.

With `CN(Cc1ccc(-c2ccc(-c3ccccc3)cc2)cn1)CC(O)(Cn1cncn1)c1ccc(F)cc1F` (stereo unspecified), the MIC80 in the test on Candida tropicalis was found to be 0.012 µg/mL (≈ 0.0235 µM); with Candida albicans [1], 0.012 µg/mL (≈ 0.0235 µM); in the test with Nakaseomyces glabratus, 0.1 µg/mL (≈ 0.195 µM); in the test on Cryptococcus neoformans, 0.05 µg/mL (≈ 0.0977 µM); in the test with Candida parapsilosis, 0.012 µg/mL (≈ 0.0235 µM); in the test on Pichia kudriavzevii it was 0.1 µg/mL (≈ 0.195 µM). Also, the MIC80 in the test on Candida albicans [2] amounted to 0.012 µg/mL (≈ 0.0235 µM).

Turning to `COc1ccc(-c2ccc(CN(C)CC(O)(Cn3cncn3)c3ccc(F)cc3F)nc2)cc1` (stereo unspecified), the MIC80 in the test with Candida tropicalis worked out at 0.012 µg/mL (≈ 0.0258 µM); in the test on Candida albicans [1] it was 0.012 µg/mL (≈ 0.0258 µM); in the test on Nakaseomyces glabratus it was 0.4 µg/mL (≈ 0.859 µM); with Cryptococcus neoformans it was 0.4 µg/mL (≈ 0.859 µM); with Candida parapsilosis it was 0.025 µg/mL (≈ 0.0537 µM); with Pichia kudriavzevii it was 0.1 µg/mL (≈ 0.215 µM). Also, the MIC80 with Candida albicans [2] is 0.012 µg/mL (≈ 0.0258 µM).

Take `CN(Cc1ccc(-c2ccc(OC(F)(F)F)cc2)s1)CC(O)(Cn1cncn1)c1ccc(F)cc1F` (stereo unspecified): the MIC80 in the test on Candida tropicalis was 0.006 µg/mL (≈ 0.0114 µM); in the test with Candida albicans [1], 0.012 µg/mL (≈ 0.0229 µM); in the test on Nakaseomyces glabratus, 0.1 µg/mL (≈ 0.191 µM); in the test on Cryptococcus neoformans it was 0.05 µg/mL (≈ 0.0953 µM); with Candida parapsilosis, 0.006 µg/mL (≈ 0.0114 µM); with Pichia kudriavzevii, 0.05 µg/mL (≈ 0.0953 µM). For the same molecule, the MIC80 with Candida albicans [2] was 0.006 µg/mL (≈ 0.0114 µM).

As to `CN(Cc1cnc(-c2ccc(C(F)(F)F)cc2)s1)CC(O)(Cn1cncn1)c1ccc(F)cc1F` (stereo unspecified), the MIC80 stood at 0.006 µg/mL (≈ 0.0118 µM) with Candida tropicalis; 0.025 µg/mL (≈ 0.0491 µM) in the test on Candida albicans [1]; 0.2 µg/mL (≈ 0.393 µM) in the test on Nakaseomyces glabratus; 0.4 µg/mL (≈ 0.785 µM) in the test with Cryptococcus neoformans; 0.05 µg/mL (≈ 0.0981 µM) with Candida parapsilosis; 0.2 µg/mL (≈ 0.393 µM) in the test with Pichia kudriavzevii. In the test with Candida albicans [2], the MIC80 stood at 0.025 µg/mL (≈ 0.0491 µM).

With `CN(Cc1cnc(-c2ccc(Cl)cc2)s1)CC(O)(Cn1cncn1)c1ccc(F)cc1F` (stereo unspecified), the MIC80 in the test on Candida tropicalis was 0.4 µg/mL (≈ 0.84 µM); with Candida albicans [1] it was 0.2 µg/mL (≈ 0.42 µM); in the test on Nakaseomyces glabratus, 1.6 µg/mL (≈ 3.36 µM); in the test on Cryptococcus neoformans, 1.6 µg/mL (≈ 3.36 µM); with Candida parapsilosis it was 0.4 µg/mL (≈ 0.84 µM); with Pichia kudriavzevii, 1.6 µg/mL (≈ 3.36 µM). Also, in the test with Candida albicans [2], the MIC80 came to 0.2 µg/mL (≈ 0.42 µM).

For the molecule `[2H]C([2H])([2H])N(Cc1ccc(-c2ccc(Cl)cc2)cc1)CC(O)(Cn1cncn1)c1ccc(F)cc1F` (stereo unspecified), the MIC80 was 0.006 µg/mL (≈ 0.0127 µM) with Candida tropicalis; 0.006 µg/mL (≈ 0.0127 µM) in the test on Candida albicans [1]; 0.012 µg/mL (≈ 0.0254 µM) with Nakaseomyces glabratus; 0.012 µg/mL (≈ 0.0254 µM) with Cryptococcus neoformans; 0.006 µg/mL (≈ 0.0127 µM) with Candida parapsilosis; 0.012 µg/mL (≈ 0.0254 µM) in the test with Pichia kudriavzevii. Further, the MIC80 with Candida albicans [2] stood at 0.006 µg/mL (≈ 0.0127 µM).

On to `OC(CNCc1ccc(-c2ccc(Cl)cc2)cc1)(Cn1cncn1)c1ccc(F)cc1F` (stereo unspecified), for which the MIC80 was 0.025 µg/mL (≈ 0.055 µM) with Candida tropicalis; 0.025 µg/mL (≈ 0.055 µM) in the test on Candida albicans [1]; 0.05 µg/mL (≈ 0.11 µM) in the test with Nakaseomyces glabratus; 0.05 µg/mL (≈ 0.11 µM) in the test with Cryptococcus neoformans; 0.025 µg/mL (≈ 0.055 µM) in the test with Candida parapsilosis; 0.05 µg/mL (≈ 0.11 µM) in the test on Pichia kudriavzevii. Also, the MIC80 in the test on Candida albicans [2] came out at 0.025 µg/mL (≈ 0.055 µM).

Take `CN(Cc1ccc(-c2ccc(C(F)(F)F)cc2)nc1)CC(O)(Cn1cncn1)c1ccc(F)cc1F` (stereo unspecified): the MIC80 in the test on Candida tropicalis amounted to 0.012 µg/mL (≈ 0.0238 µM); with Candida albicans [1], 0.012 µg/mL (≈ 0.0238 µM); with Nakaseomyces glabratus it was 0.2 µg/mL (≈ 0.397 µM); in the test with Cryptococcus neoformans, 0.025 µg/mL (≈ 0.0497 µM); in the test with Candida parapsilosis it was 0.006 µg/mL (≈ 0.0119 µM); with Pichia kudriavzevii, 0.025 µg/mL (≈ 0.0497 µM). Moreover, the MIC80 with Candida albicans [2] came to 0.012 µg/mL (≈ 0.0238 µM).

For `CN(Cc1ccc(-c2ccc(C(F)(F)F)cc2)cc1)CC(O)(Cn1cncn1)c1ccc(F)cc1F` (stereo unspecified), the MIC80 in the test on Candida tropicalis stood at 0.012 µg/mL (≈ 0.0239 µM); in the test on Candida albicans [1], 0.012 µg/mL (≈ 0.0239 µM); in the test on Nakaseomyces glabratus, 0.025 µg/mL (≈ 0.0498 µM); in the test on Cryptococcus neoformans, 0.05 µg/mL (≈ 0.0995 µM); in the test on Candida parapsilosis, 0.006 µg/mL (≈ 0.0119 µM); in the test with Pichia kudriavzevii it was 0.025 µg/mL (≈ 0.0498 µM). In addition, in the test on Candida albicans [2], the MIC80 was determined as 0.012 µg/mL (≈ 0.0239 µM).

Take `CN(Cc1ccc(-c2ccc(C#N)cc2)cn1)CC(O)(Cn1cncn1)c1ccc(F)cc1F` (stereo unspecified): the MIC80 was 0.012 µg/mL (≈ 0.0261 µM) in the test with Candida tropicalis; 0.012 µg/mL (≈ 0.0261 µM) in the test with Candida albicans [1]; 1.6 µg/mL (≈ 3.47 µM) in the test with Nakaseomyces glabratus; 0.8 µg/mL (≈ 1.74 µM) in the test with Cryptococcus neoformans; 0.1 µg/mL (≈ 0.217 µM) in the test on Candida parapsilosis; 0.2 µg/mL (≈ 0.434 µM) in the test on Pichia kudriavzevii. Also, in the test with Candida albicans [2], the MIC80 turned out to be 0.012 µg/mL (≈ 0.0261 µM).

As to `CN(Cc1ccc(-c2ccc(C(F)(F)F)cc2)cn1)CC(O)(Cn1cncn1)c1ccc(F)cc1F` (stereo unspecified), the MIC80 was determined as 0.012 µg/mL (≈ 0.0238 µM) in the test with Candida tropicalis; 0.012 µg/mL (≈ 0.0238 µM) with Candida albicans [1]; 0.05 µg/mL (≈ 0.0993 µM) in the test on Nakaseomyces glabratus; 0.025 µg/mL (≈ 0.0497 µM) in the test with Cryptococcus neoformans; 0.006 µg/mL (≈ 0.0119 µM) with Candida parapsilosis; 0.05 µg/mL (≈ 0.0993 µM) with Pichia kudriavzevii. Moreover, the MIC80 with Candida albicans [2] is 0.012 µg/mL (≈ 0.0238 µM).

Consider `CN(Cc1nc(-c2ccc(Cl)cc2)cs1)CC(O)(Cn1cncn1)c1ccc(F)cc1F` (stereo unspecified), for which the MIC80 in the test on Candida tropicalis was found to be 0.025 µg/mL (≈ 0.0525 µM); in the test on Candida albicans [1], 0.012 µg/mL (≈ 0.0252 µM); in the test with Nakaseomyces glabratus it was 0.4 µg/mL (≈ 0.84 µM); with Cryptococcus neoformans, 0.8 µg/mL (≈ 1.68 µM); in the test on Candida parapsilosis, 0.012 µg/mL (≈ 0.0252 µM); in the test with Pichia kudriavzevii it was 0.2 µg/mL (≈ 0.42 µM). Moreover, the MIC80 in the test with Candida albicans [2] amounted to 0.012 µg/mL (≈ 0.0252 µM).

As to `CN(Cc1ccc(-c2ccc(C(C)(C)C)cc2)cn1)CC(O)(Cn1cncn1)c1ccc(F)cc1F` (stereo unspecified), the MIC80 in the test on Candida tropicalis worked out at 0.006 µg/mL (≈ 0.0122 µM); with Candida albicans [1], 0.025 µg/mL (≈ 0.0509 µM); in the test on Nakaseomyces glabratus, 0.2 µg/mL (≈ 0.407 µM); with Cryptococcus neoformans, 0.012 µg/mL (≈ 0.0244 µM); with Candida parapsilosis, 0.012 µg/mL (≈ 0.0244 µM); in the test on Pichia kudriavzevii, 0.1 µg/mL (≈ 0.203 µM). Moreover, the MIC80 in the test with Candida albicans [2] was found to be 0.012 µg/mL (≈ 0.0244 µM).

Broadly, the MIC80 is an inhibitory concentration at the 80% level, which refers to growth in some studies and to a panel of isolates in others.
